Source: ChEMBL document CHEMBL5230154, “Chemical probe of AHL modulators on quorum sensing in Gram-Negative Bacteria and as antiproliferative agents: A review” (Eur J Med Chem, 2021)

Legend:
[1] = Antagonist activity against quorum sensing system in Pseudomonas aeruginosa PAO1 transfected with rhlA-lacZ reporter gene assessed as inhibition of beta-galactosidase activity incubated for 24 hrs by elastin-Congo red assay
[2] = Antagonist activity against quorum sensing system in Pseudomonas aeruginosa PAO1 transfected with lasB-lacZ reporter gene assessed as inhibition of beta-galactosidase activity incubated for 24 hrs by elastin-Congo red assay
[3] = Inhibition of quorum sensing system in Pseudomonas aeruginosa PAO1 assessed as inhibition of pqsR expression incubated for 4 hrs by RT-PCR analysis
Pseudomonas aeruginosa [4] = test: Anti-motility activity against Pseudomonas aeruginosa PAO1 NCTC 10332 assessed as reduction in swarming at 50 uM and measured after 16 hr by swarming assay; assay type: functional; design: scale not given: the % may be the effect or the level left
Pseudomonas aeruginosa [5] = test: Antibiofilm activity against Pseudomonas aeruginosa PAO1 NCTC 10332 assessed as inhibition of biofilm formation incubated for 24 hrs by crystal violet staining based assay; assay type: functional, organism-based; conditions: PAO1 NCTC 10332, 24 h
Pseudomonas aeruginosa [6] = test: Anti-motility activity against Pseudomonas aeruginosa PAO1 NCTC 10332 assessed as reduction in swimming at 50 uM and measured after 18 hr; assay type: functional; design: scale not given: the % may be the effect or the level left
[7] = Inhibition of quorum sensing system in Pseudomonas aeruginosa PAO1 assessed as inhibition of RhlR expression incubated for 4 hrs by RT-PCR analysis
[8] = Inhibition of quorum sensing system in Pseudomonas aeruginosa PA14 assessed as inhibition of pyocyanin production by UV-vis spectrophotometric assay

| IC50 [1] [µM] | IC50 [2] [µM] | IC50 [3] [µM] | IC50 (Pseudomonas aeruginosa [5]) [µM] | IC50 [7] [µM] | IC50 [8] [µM] | Compound | Activity (Pseudomonas aeruginosa [4]) [%] | Activity (Pseudomonas aeruginosa [6]) [%] |
| --- | --- | --- | --- | --- | --- | --- | --- | --- |
| 90 | 80 |  |  |  |  | CCCCCCCCCC(=O)NC1CCCC1 [N-CYCLOPENTYLDECANAMIDE] |  |  |
|  |  | 25 | 50 | 40 | 12 | Clc1ccc2c(NCCCCCCCCNCc3cc4ccccc4o3)ccnc2c1 | 40 | 40 |
